Source: paper PMC5547389, “Structure-activity relationships and molecular docking studies of chromene and chromene based azo chromophores: A novel series of potent antimicrobial and anticancer agents” (EXCLI Journal, 2017)
≈ marks a conversion by molar mass, not a printed value.

Key:
[1] = test system: Pseudomonas aeruginosa (RCMB 010043); assay: MIC by serial dilution method; type: cell-based; details: RCMB010043, Gm-ve, read-out: Minimum inhibitory concentration, MIC, P.A
Experimental: (§1) All the newly synthesized compounds described in this report were screened for both antibacterial and antifungal activity via the reported agar diffusion well method (Vanden Berghe and Vlietinck, 1991[62]). The inhibition zones and minimum inhibitory concentrations (MIC) were determined by the serial dilution method (Cappuccino and Sherman, 1999[12]). The antimicrobial activity of the synthesized compounds was tested against a broad panel of microorganisms including two Gram-positive bacteria: Streptococcus pneumoniae (RCMB 010010) and Bacillus subtilis (RCMB 010067), two Gram-negative bacteria: Pseudomonas aeruginosa (RCMB 010043) and Escherichia coli (RCMB 010052), and four fungi: Aspergillus fumigatus (RCMB 02568), Syncephalastrum racemosum (RCMB 05922), Geotricum candidum (RCMB 05097), and Candida albicans (RCMB 05036). Ampicillin, ciprofloxacin, gentamicin and amphotericin B were used as positive control drugs (Atta-ur-Rahman and Thomsen, 2001[7]; Smania et al., 1999[57]). […] While in the case of Gm-ve bacteria, they had weak activity. In addition, certain strains of fungi were sensitive to tested compounds with an IZ range from 12-25 except Candida albicans.

[2] = test system: Escherichia coli (RCMB 010052); assay: MIC by serial dilution method; type: cell-based; details: RCMB010052, Gm-ve, read-out: Minimum inhibitory concentration, MIC, E.C
Experimental: as §1

[3] = test system: Pseudomonas aeruginosa (RCMB 010043); assay: Well diffusion assay (inhibition zone); type: cell-based; details: RCMB010043, 5 mg/mL in DMSO, Gm-ve, read-out: Inhibition Zone (IZ) diameter, P.A
Experimental: (§2) The microorganism inoculums were uniformly spread using sterile cotton swabs on a sterile Petri dish malt extract agar (for fungi) and nutrient agar (for bacteria). One hundred cubic millimeters of each sample was added to each well (10 mm-diameter holes were cut in the agar gel, 20 mm apart from one another). The systems were incubated for 24-48 h at 37 °C (for bacteria) and at 28 °C (for fungi). After incubation, the microorganism growth was observed. Inhibition zones of the bacterial and fungal growth were measured in millimeters. Tests were performed in triplicate (Cappuccino and Sherman, 1999[12]; Vanden Berghe and Vlientinck, 1991[62]).
as §1

[4] = test system: Escherichia coli (RCMB 010052); assay: Well diffusion assay (inhibition zone); type: cell-based; details: RCMB010052, 5 mg/mL in DMSO, Gm-ve, read-out: Inhibition Zone (IZ) diameter, E.C
Experimental: as §2, §1

[5] = test system: Streptococcus pneumoniae (RCMB 010010); assay: MIC by serial dilution method; type: cell-based; details: RCMB010010, Gm+ve, read-out: Minimum inhibitory concentration, MIC, S.P
Experimental: as §1

[6] = test system: Bacillus subtilis (RCMB 010067); assay: MIC by serial dilution method; type: cell-based; details: RCMB010067, Gm+ve, read-out: Minimum inhibitory concentration, MIC, B.S
Experimental: as §1

[7] = test system: Streptococcus pneumoniae (RCMB 010010); assay: Well diffusion assay (inhibition zone); type: cell-based; details: RCMB010010, 5 mg/mL in DMSO, Gm+ve, read-out: Inhibition Zone (IZ) diameter, S.P
Experimental: as §2, §1

[8] = test system: Bacillus subtilis (RCMB 010067); assay: Well diffusion assay (inhibition zone); type: cell-based; details: RCMB010067, 5 mg/mL in DMSO, Gm+ve, read-out: Inhibition Zone (IZ) diameter, B.S
Experimental: as §2, §1

[9] = test system: human hepatocellular carcinoma (HEPG-2); assay: Cytotoxic screening; type: cell-based; details: HepG2, read-out: IC50 HepG-2
Experimental: (§3) Human colon carcinoma (HCT-116), human hepatocellular carcinoma (HEPG-2), adenocarcinomic human alveolar basal epithelial cell (A-549), and human breast adenocarcinoma (MCF-7) cell lines were obtained from the American Type Culture Collection (ATCC, Rockville, MD). The cells were grown on RPMI-1640 medium supplemented with 10 % inactivated fetal calf serum and 50 µg/ml gentamycin. The cells were maintained at 37 °C in a humidified atmosphere with 5 % CO2 and were subcultured two to three times a week. Potential cytotoxicity of the compounds was evaluated on tumor cells using the method of Gangadevi and Muthumary (2007[21]) (Klancnik et al., 2010[36]). The cells were grown as monolayers in growth RPMI-1640. The monolayers of 104 cells adhered at the bottom of the wells in a 96-well microtiter plate incubated for 24 h at 37 °C in a humidified incubator with 5 % CO2. The monolayers were then washed with sterile phosphate buffered saline (0.01 M pH 7.2) and simultaneously the cells were treated with 100 µL from different dilutions of tested sample in fresh maintenance medium and incubated at 37 °C. A control of untreated cells was made in the absence of tested sample. Positive controls containing doxorubicin were also tested as a reference drug for comparison. Six wells were used for each concentration of the test sample. Every 24 hours an observation under the inverted microscope was made. The number of the surviving cells was determined by staining the cells with crystal violet (Mosmann, 1983[42]; Gangadevi and Muthumary, 2007[21]) followed by cell lysing using 33 % glacial acetic acid and reading the absorbance at 590 nm using microplate reader (SunRise, TECAN, Inc, USA) after well mixing. The absorbance values from untreated cells were considered as 100 % proliferation. The number of viable cells was determined using microplate reader as previously mentioned before and the percentage of […] was calculated as [1-(ODt/ODc)] x 100 % where ODt is the mean optical density of wells treated with the tested sample and ODc is the mean optical density of untreated cells. The relation between surviving cells and drug concentration was plotted to get the survival curve of each tumor cell line after treatment with the specified compound. The 50 % inhibitory concentration (IC50), the concentration required to cause toxic effects in 50 % of intact cells, was estimated from graphic plots.
(§4) The in vitro cytotoxic activity was performed by MTT assay (Mosmann, 1983[42]; Alley et al., 1988[6]) against three human carcinoma cell lines: Human colon carcinoma (HCT-116), human breast adenocarcinoma (MCF-7), and human hepatocellular carcinoma (HEPG-2).

[10] = test system: human breast adenocarcinoma (MCF-7); assay: Cytotoxic screening; type: cell-based; details: Homo sapiens, MCF7; read-out: IC50 MCF-7
Experimental: as §3, §4

[11] = test system: Human colon carcinoma (HCT-116); assay: Cytotoxic screening; type: cell-based; details: Homo sapiens, HCT-116; read-out: IC50 HCT-116
Experimental: as §3, §4

[12] = test system: Syncephalastrum racemosum (RCMB 05922); assay: MIC by serial dilution method; type: cell-based; details: RCMB05922, fungi, read-out: Minimum inhibitory concentration, MIC, S.R
Experimental: as §1

[13] = test system: Aspergillus fumigatus (RCMB 02568); assay: MIC by serial dilution method; type: cell-based; details: RCMB02568, fungi, read-out: Minimum inhibitory concentration, MIC, A.F
Experimental: as §1

[14] = test system: Geotricum candidum (RCMB 05097); assay: MIC by serial dilution method; type: cell-based; details: fungi; read-out: Minimum inhibitory concentration, MIC, G.C
Experimental: as §1

[15] = test system: Syncephalastrum racemosum (RCMB 05922); assay: Well diffusion assay (inhibition zone); type: cell-based; details: RCMB05922, 5 mg/mL in DMSO, fungi, read-out: Inhibition Zone (IZ) diameter, S.R
Experimental: as §2, §1

[16] = test system: Aspergillus fumigatus (RCMB 02568); assay: Well diffusion assay (inhibition zone); type: cell-based; details: RCMB02568, 5 mg/mL in DMSO, fungi, read-out: Inhibition Zone (IZ) diameter, A.F
Experimental: as §2, §1

[17] = test system: Geotricum candidum (RCMB 05097); assay: Well diffusion assay (inhibition zone); type: cell-based; details: 5 mg/mL in DMSO; fungi; read-out: Inhibition Zone (IZ) diameter, G.C
Experimental: as §2, §1

MIC [1] [µg/mL]	MIC [2] [µg/mL]	MIC [5] [µg/mL]	MIC [6] [µg/mL]	MIC [12] [µg/mL]	MIC [13] [µg/mL]	MIC [14] [µg/mL]	melting point [°C]	SMILES	zone of inhibition at 5000 µg/mL [3] [mm]	zone of inhibition at 5000 µg/mL [4] [mm]	zone of inhibition at 5000 µg/mL [7] [mm]	zone of inhibition at 5000 µg/mL [8] [mm]	IC50 [9] [µg/mL]	IC50 [10] [µg/mL]	IC50 [11] [µg/mL]	zone of inhibition at 5000 µg/mL [15] [mm]	zone of inhibition at 5000 µg/mL [16] [mm]	zone of inhibition at 5000 µg/mL [17] [mm]
31.2 (≈ 65.4 µM)	3.9 (≈ 8.17 µM)	–	–	–	–	–	–	CNC(C)C1CCC(N)C(OC2C(N)CC(N)C(OC3OCC(C)(O)C(NC)C3O)C2O)O1 (centres unmarked) [Gentamicin, reference compound]	17.3	19.9	–	–	–	–	–	–	–	–
–	–	0.24 (≈ 0.687 µM)	0.007 (≈ 0.02 µM)	–	–	–	–	CC1(C)S[C@@H]2[C@H](NC(=O)[C@H](N)c3ccccc3)C(=O)N2[C@H]1C(=O)O [Ampicillin, reference compound]	–	–	23.8	32.4	–	–	–	–	–	–
31.2 (≈ 77.7 µM)	3.9 (≈ 9.69 µM)	0.98 (≈ 2.44 µM)	0.49 (≈ 1.22 µM)	3.9 (≈ 9.69 µM)	0.98 (≈ 2.44 µM)	0.98 (≈ 2.44 µM)	260	N#CC1=C(N)Oc2cc(O)c(N=Nc3ccc(O)cc3)cc2C1c1ccccc1F (centres unmarked) [13j, 2-Amino-4-(2-fluoro-phenyl)-7-hydroxy-6-(4-hydroxy-phenylazo)-4H-chromene-3-carbonitrile]	16.3	19.8	21	21.9	47.2 (≈ 117 µM)	44 (≈ 109 µM)	49.1 (≈ 122 µM)	18.7	20.6	21.2
15.6 (≈ 35.5 µM)	3.9 (≈ 8.85 µM)	0.24 (≈ 0.545 µM)	0.12 (≈ 0.272 µM)	15.6 (≈ 35.5 µM)	3.9 (≈ 8.85 µM)	0.98 (≈ 2.22 µM)	255	CC(C)(C)c1ccc(C2C(C#N)=C(N)Oc3cc(O)c(N=Nc4ccc(O)cc4)cc32)cc1 (centres unmarked) [13i, 2-Amino-4-(4-tert-butyl-phenyl)-7-hydroxy-6-(4-hydroxy-phenylazo)-4H-chromene-3-carbonitrile]	16.2	17.2	21.3	22.4	31.6 (≈ 71.7 µM)	47 (≈ 107 µM)	75.7 (≈ 172 µM)	19.2	17.3	20.3
